Measured values as given in patent US20200392079A1, “Compound, Photopolymerization Initiator Containing Said Compound, and Photosensitive Resin Composition Containing Said Photopolymerization Initiator” (Nippon Kayaku Kabushiki Kaisha, priority 2018, published 2020).

Assay: Solubility evaluation experiment (time required for dissolving in solvent)
Assay type: physicochemical
Procedure: After the components were mixed in a glass container in accordance with the formulation amounts (parts by mass) listed in Table 1, the solution was placed on a hot plate at 50° C. and stirred with a glass bar. The time (minute) required for dissolving was measured to evaluate the solubility.

[1] = 0.50 parts initiator in 1.00 parts (D-1) Cyclopentanon, hot plate 50° C., stirred with glass bar
[2] = 0.50 parts initiator in (D-2) 1-methoxy-2-propanol (PGME), 1.00 parts (1.43 parts for C-5), 50° C.
[3] = 0.50 parts initiator in (D-3) Polyethylene gylcol monomethylether acetate (PGMEA), 1.00-1.67 parts, 50° C.
[4] = 0.50 parts initiator in (D-4) 3-betoxymethanol, 1.11 parts (>5 parts for C-5), 50° C.

| Compound | Stirring time (time required for dissolving) [1] [min] | Stirring time (time required for dissolving) [2] [min] | Stirring time (time required for dissolving) [3] [min] | Stirring time (time required for dissolving) [4] [min] |
| --- | --- | --- | --- | --- |
| C=C(C)C(=O)OCCNC(=O)OCC(O)(C(=O)c1ccc(SC)cc1)c1ccc(SC)cc1 (centres unmarked) [Initiator C-1] | 10 | 19 | 25 | 40 |
| C=CC(=O)OCCNC(=O)OCC(O)(C(=O)c1ccc(SC)cc1)c1ccc(SC)cc1 (centres unmarked) [Initiator C-2] | 15 | 12 | 20 | 40 |
